According to US20240208992A1, “MACROCYCLES AS CFTR MODULATORS” (Idorsia Pharmaceuticals Ltd, priority 2021, published 2024):

Target: human F508del-CFTR (Homo sapiens, UniProt P13569, DEL508-508)
Experiment: F508del-CFTR cell surface expression (corrector activity), DiscoveRx ß-galactosidase complementation chemiluminescence assay in recombinant U2OS cell line;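 note: U2OS cells co-expressing ProLink-tagged F508del-CFTR and a membrane-anchored enzyme acceptor, where more surface CFTR restores β-galactosidase activity measured by chemiluminescence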
Settings: for EC50: EC50, F508del-CFTR cell surface expression; for Emax: U2OS
[1] = U2OS cells, 16h compound incubation, geomean values
[2] = in relation to Emax of corrector lumacaftor (=100%), arithmetic mean values
[3] = U2OS cell line, 16h compound incubation, geomean values
[4] = in relation to the Emax of the corrector lumacaftor (=100%), U2OS cell line, 16h compound incubation, arithmetic mean values
[5] = U2OS cells, 16h compound incubation, geomean of several measurements
[6] = in relation to the Emax of the corrector lumacaftor (=100%), U2OS cells, 16h compound incubation, arithmetic mean

Chain of human F508del-CFTR (P13569 with tags, fused parts or gaps DEL508-508): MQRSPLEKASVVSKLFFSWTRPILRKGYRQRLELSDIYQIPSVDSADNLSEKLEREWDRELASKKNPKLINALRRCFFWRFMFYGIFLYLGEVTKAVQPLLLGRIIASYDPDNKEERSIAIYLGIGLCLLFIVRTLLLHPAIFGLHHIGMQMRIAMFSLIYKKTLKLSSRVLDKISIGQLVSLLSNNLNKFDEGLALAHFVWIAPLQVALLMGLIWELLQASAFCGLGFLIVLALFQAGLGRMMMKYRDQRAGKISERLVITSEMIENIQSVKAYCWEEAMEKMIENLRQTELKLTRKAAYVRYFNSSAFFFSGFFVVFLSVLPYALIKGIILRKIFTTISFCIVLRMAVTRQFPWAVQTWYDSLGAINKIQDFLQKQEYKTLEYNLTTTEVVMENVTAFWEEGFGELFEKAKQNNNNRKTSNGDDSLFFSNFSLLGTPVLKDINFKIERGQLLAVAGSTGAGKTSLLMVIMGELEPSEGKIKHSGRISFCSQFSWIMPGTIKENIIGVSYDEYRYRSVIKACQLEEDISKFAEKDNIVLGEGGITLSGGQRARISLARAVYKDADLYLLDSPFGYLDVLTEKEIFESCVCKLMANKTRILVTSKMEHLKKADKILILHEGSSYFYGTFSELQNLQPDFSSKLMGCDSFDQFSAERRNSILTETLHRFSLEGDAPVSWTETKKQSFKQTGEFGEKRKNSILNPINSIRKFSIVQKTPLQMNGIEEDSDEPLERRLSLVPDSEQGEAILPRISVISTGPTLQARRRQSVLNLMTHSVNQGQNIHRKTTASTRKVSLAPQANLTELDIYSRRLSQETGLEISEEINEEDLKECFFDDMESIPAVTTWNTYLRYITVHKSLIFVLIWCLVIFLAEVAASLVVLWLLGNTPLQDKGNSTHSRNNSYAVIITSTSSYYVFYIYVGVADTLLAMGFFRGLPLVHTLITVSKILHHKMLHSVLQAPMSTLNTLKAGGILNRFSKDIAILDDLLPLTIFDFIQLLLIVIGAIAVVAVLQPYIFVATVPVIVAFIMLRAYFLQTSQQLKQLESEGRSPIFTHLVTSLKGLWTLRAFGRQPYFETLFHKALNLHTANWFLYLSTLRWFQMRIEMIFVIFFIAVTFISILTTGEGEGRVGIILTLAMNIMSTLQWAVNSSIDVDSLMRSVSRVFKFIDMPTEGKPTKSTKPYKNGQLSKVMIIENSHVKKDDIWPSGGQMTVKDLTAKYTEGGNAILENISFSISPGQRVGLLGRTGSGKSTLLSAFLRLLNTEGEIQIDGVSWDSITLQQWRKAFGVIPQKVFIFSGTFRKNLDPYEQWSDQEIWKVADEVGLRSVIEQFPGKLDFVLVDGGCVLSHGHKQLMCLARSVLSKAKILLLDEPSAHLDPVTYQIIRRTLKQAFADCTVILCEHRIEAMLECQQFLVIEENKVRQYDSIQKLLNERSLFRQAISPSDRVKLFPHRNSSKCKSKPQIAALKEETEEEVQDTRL

Row | Compound | EC50 [3] [nM] | Emax [4] [%] | other results
1 | Cc1cc2ccc3c(c2o1)C(=O)N[C@H](C(=O)NCCc1nc(C2CC2)no1)CC(=O)N(C)[C@@H](CC(C)C)C(=O)N(C)CC(=O)N[C@H](Cc1ccccc1)CO3 [Example 562, (8R,14S,18S)-8-benzyl-N-(2-(3-cyclopropyl-1,2,4-oxadiazol-5-yl)ethyl)-14-isobutyl-2,12,15-trimethyl-10,13,16,20-tetraoxo-7,8,9,10,11,12,13,14,15,16,17,18,19,20-tetradecahydrobenzofuro[7,6-p][1]oxa[4,7,10,14]tetraazacycloheptadecine-18-carboxamide] | – | – | EC50 [1]: 444 nM; Emax [2]: 282%
2 | CC(C)C[C@H]1C(=O)N(C)[C@@H](CC2CCCC2)C(=O)N[C@H](Cc2ccccc2)COc2cnc3ccc(F)cc3c2C(=O)N[C@H](C(=O)NCCc2noc(C3CC3)n2)CC(=O)N1C [Example 694, (3S,7S,10S,13R)-13-benzyl-10-(cyclopentylmethyl)-N-(2-(5-cyclopropyl-1,2,4-oxadiazol-3-yl)ethyl)-20-fluoro-7-isobutyl-6,9-dimethyl-1,5,8,11-tetraoxo-1,2,3,4,5,6,7,8,9,10,11,12,13,14-tetradecahydro-[1]oxa[4,7,10,14]tetraazacycloheptadecino[17,16-c]quinoline-3-carboxamide] | – | – | EC50 [1]: 241 nM; Emax [2]: 213%
3 | COc1cccc(CCNC(=O)[C@@H]2CC(=O)N(C)[C@@H](CC(C)C)C(=O)N(C)C3(CC3)C(=O)N[C@H](Cc3ccccc3)COc3ccnc(OC)c3C(=O)N2)c1 [Example 438, (3′R,9′S,13′S)-3′-benzyl-9′-isobutyl-16′-methoxy-N-(3-methoxyphenethyl)-7′,10′-dimethyl-5′,8′,11′,15′-tetraoxo-2′,3′,4′,5′,8′,9′,10′,11′,12′,13′,14′,15′-dodecahydro-7′H-spiro[cyclopropane-1,6′-pyrido[3,4-p][1]oxa[4,7,10,14]tetraazacycloheptadecine]-13′-carboxamide] | – | – | EC50 [1]: 474 nM; Emax [2]: 422%
4 | COc1cccc(CCNC(=O)[C@@H]2CC(=O)N(C)[C@@H](CC(C)C)C(=O)N3CCCC[C@@H]3C(=O)N[C@H](Cc3ccccc3)COc3ccnc(OC)c3C(=O)N2)c1 [Example 180, (7S,11S,17aR,20R)-20-benzyl-11-isobutyl-4-methoxy-N-(3-methoxyphenethyl)-10-methyl-5,9,12,18-tetraoxo-5,6,7,8,9,10,11,12,15,16,17,17a,18,19,20,21-hexadecahydro-14H-dipyrido[2,1-f:3′,4′-p][1]oxa[4,7,10,14]tetraazacycloheptadecine-7-carboxamide] | 388 | 257 | –
5 | COc1cccc(CCNC(=O)[C@@H]2CC(=O)N(C)[C@@H](CC(C)C)C(=O)N(CC[C@H]3CCCCO3)CC(=O)N[C@H](Cc3ccccc3)COc3cccc(OC)c3C(=O)N2)c1 (racemic) [Example 310] | 788 | 202 | –
6 | Cc1cccc(CCNC(=O)[C@@H]2CC(=O)N(C)[C@@H](CC(C)C)C(=O)N3CCOC[C@@H]3C(=O)N[C@H](Cc3ccccc3)COc3cnc4ccccc4c3C(=O)N2)c1 [Example 62, (9S,13S,19aR,22R)-22-benzyl-13-isobutyl-12-methyl-N-(3-methylphenethyl)-7,11,14,20-tetraoxo-7,8,9,10,11,12,13,14,16,17,19,19a,20,21,22,23-hexadecahydro-[1,4]oxazino[3′,4′:6,7][1]oxa[4,7,10,14]tetraazacycloheptadecino[17,16-c]quinoline-9-carboxamide] | 809 | 222 | –
7 | COc1cccc2c1C(=O)N[C@H](C(=O)NCCCOC(F)F)CC(=O)N(C)[C@@H](CC(C)C)C(=O)N(CCC1CCCCC1)CC(=O)N[C@H](Cc1ccccc1)CO2 [Example 21, (3R,9S,13S)-3-benzyl-7-(2-cyclohexylethyl)-N-(3-(difluoromethoxy)propyl)-9-isobutyl-16-methoxy-10-methyl-5,8,11,15-tetraoxo-2,3,4,5,6,7,8,9,10,11,12,13,14,15-tetradecahydrobenzo[p][1]oxa[4,7,10,14]tetraazacycloheptadecine-13-carboxamide] | 350 | 108 | –
8 | Cc1cc2c(c3cccnc13)C(=O)N[C@H](C(=O)NCCc1noc(C3CC3)n1)CC(=O)N(C)[C@@H](CC(C)C)C(=O)N(C)[C@H](Cc1nc(C(F)(F)F)no1)C(=O)N[C@H](Cc1ccccc1)CO2 [Example 935, (3S,7S,10R,13R)-13-benzyl-N-(2-(5-cyclopropyl-1,2,4-oxadiazol-3-yl)ethyl)-7-isobutyl-6,9,17-trimethyl-1,5,8,11-tetraoxo-10-((3-(trifluoromethyl)-1,2,4-oxadiazol-5-yl)methyl)-1,2,3,4,5,6,7,8,9,10,11,12,13,14-tetradecahydro-[1]oxa[4,7,10,14]tetraazacycloheptadecino[16,17-f]quinoline-3-carboxamide] | – | – | EC50 [5]: 24 nM; Emax [6]: 496%
9 | COc1nccc2c1C(=O)N[C@H](C(=O)NCCc1noc(C3CC3)n1)CC(=O)N(C)[C@@H](CC(C)C)C(=O)N(C)[C@H](Cc1nc(-c3ccccc3)no1)C(=O)N[C@H](Cc1ccccc1)CO2 [Example 859, (3R,6R,9S,13S)-3-benzyl-N-(2-(5-cyclopropyl-1,2,4-oxadiazol-3-yl)ethyl)-9-isobutyl-16-methoxy-7,10-dimethyl-5,8,11,15-tetraoxo-6-((3-phenyl-1,2,4-oxadiazol-5-yl)methyl)-2,3,4,5,6,7,8,9,10,11,12,13,14,15-tetradecahydropyrido[3,4-p][1]oxa[4,7,10,14]tetraazacycloheptadecine-13-carboxamide] | – | – | EC50 [5]: 36 nM; Emax [6]: 342%
10 | CCOc1cccc(CCNC(=O)[C@@H]2CC(=O)N(C)[C@@H](CC(C)C)C(=O)N(C)CC(=O)N[C@H](Cc3ccccc3)COc3cc4c(cc3C(=O)N2)OCO4)c1 [Example 225, (7R,13S,17S)-7-benzyl-N-(3-ethoxyphenethyl)-13-isobutyl-11,14-dimethyl-9,12,15,19-tetraoxo-6,7,8,9,10,11,12,13,14,15,16,17,18,19-tetradecahydro-[1,3]dioxolo[4′,5′:4,5]benzo[1,2-p][1]oxa[4,7,10,14]tetraazacycloheptadecine-17-carboxamide] | 191 | 110 | –
11 | CC(C)C[C@H]1C(=O)N2CCOC[C@@H]2C(=O)N[C@H](Cc2ccccc2)COc2cnc3ccccc3c2C(=O)N[C@H](C(=O)NCCc2cccc(-n3nccn3)c2)CC(=O)N1C [Example 56, (9S,13S,19aR,22R)-N-(3-(2H-1,2,3-triazol-2-yl)phenethyl)-22-benzyl-13-isobutyl-12-methyl-7,11,14,20-tetraoxo-7,8,9,10,11,12,13,14,16,17,19,19a,20,21,22,23-hexadecahydro-[1,4]oxazino[3′,4′:6,7][1]oxa[4,7,10,14]tetraazacycloheptadecino[17,16-c]quinoline-9-carboxamide] | 764 | 256 | –
12 | Cc1cc2c3c(ccc2cn1)OC[C@@H](Cc1ccccc1)NC(=O)[C@@H](Cc1nc(C(F)(F)F)no1)N(C)C(=O)[C@H](CC(C)C)N(C)C(=O)C[C@@H](C(=O)NCCc1noc(C2CC2)n1)NC3=O [Example 889, (3S,7S,10R,13R)-13-benzyl-N-(2-(5-cyclopropyl-1,2,4-oxadiazol-3-yl)ethyl)-7-isobutyl-6,9,20-trimethyl-1,5,8,11-tetraoxo-10-((3-(trifluoromethyl)-1,2,4-oxadiazol-5-yl)methyl)-1,2,3,4,5,6,7,8,9,10,11,12,13,14-tetradecahydro-[1]oxa[4,7,10,14]tetraazacycloheptadecino[16,17-f]isoquinoline-3-carboxamide] | – | – | EC50 [5]: 34 nM; Emax [6]: 403%
13 | COc1nccc2c1C(=O)N[C@H](C(=O)NCCc1cnn(C3CC3)c1)CC(=O)N(C)[C@@H](CC(C)C)C(=O)N1CCCC[C@@H]1C(=O)N[C@H](Cc1ccccc1)CO2 [Example 176, (7S,11S,17aR,20R)-20-benzyl-N-(2-(1-cyclopropyl-1H-pyrazol-4-yl)ethyl)-11-isobutyl-4-methoxy-10-methyl-5,9,12,18-tetraoxo-5,6,7,8,9,10,11,12,15,16,17,17a,18,19,20,21-hexadecahydro-14H-dipyrido[2,1-f:3′,4′-p][1]oxa[4,7,10,14]tetraazacycloheptadecine-7-carboxamide] | 821 | 245 | –
14 | CC(C)C[C@H]1C(=O)N2CCCC[C@@H]2C(=O)N[C@H](Cc2ccccc2)COc2cnc3ccccc3c2C(=O)N[C@H](C(=O)NCCc2ccccc2)CC(=O)N1C [Example 77, (9S,13S,19aR,22R)-22-benzyl-13-isobutyl-12-methyl-7,11,14,20-tetraoxo-N-phenethyl-7,8,9,10,11,12,13,14,17,18,19,19a,20,21,22,23-hexadecahydro-16H-pyrido[2′,1′:6,7][1]oxa[4,7,10,14]tetraazacycloheptadecino[17,16-c]quinoline-9-carboxamide] | 231 | 237 | –
15 | COCCn1cc(CCNC(=O)[C@@H]2CC(=O)N(C)[C@@H](CC(C)C)C(=O)N(C)[C@H](Cc3nc(C(F)(F)F)no3)C(=O)N[C@H](Cc3ccccc3)COc3ccc4ncc(F)cc4c3C(=O)N2)cn1 [Example 962, (3S,7S,10R,13R)-13-benzyl-20-fluoro-7-isobutyl-N-(2-(1-(2-methoxyethyl)-1H-pyrazol-4-yl)ethyl)-6,9-dimethyl-1,5,8,11-tetraoxo-10-((3-(trifluoromethyl)-1,2,4-oxadiazol-5-yl)methyl)-1,2,3,4,5,6,7,8,9,10,11,12,13,14-tetradecahydro-[1]oxa[4,7,10,14]tetraazacycloheptadecino[16,17-f]quinoline-3-carboxamide] | – | – | EC50 [5]: 103 nM; Emax [6]: 453%
